Legend:
[1] = 298.15 K, Liquid; for viscosity: Capillary tube (Ostwald / Ubbelohde) method
[2] = refractive index (Na D-line) (dimensionless); settings: 298.15 K; 101.33 kPa; Liquid; Standard Abbe refractometry
[3] = refractive index (Na D-line) (dimensionless); xn = mol fraction of the nth substance listed; settings: 298.15 K, 101 kPa, Liquid, Standard Abbe refractometry
[4] = xn = mol fraction of the nth substance listed; settings: 298.15 K, 101 kPa, Liquid; for viscosity: Capillary tube (Ostwald / Ubbelohde) method

CCOS(=O)(=O)[O-].CCn1cc[n+](C)c1 [1-ethyl-3-methylimidazolium ethyl sulfate]
[1], 101.33 kPa
Settings	mass density [kg/m3]	viscosity [mPa·s]
–	1237.63	97.58

CCCO [propan-1-ol]
Settings	refractive index
[2]	1.38309

[1], 101 kPa
Settings	mass density [kg/m3]	viscosity [mPa·s]
–	799.6	2.017

CCCO [propan-1-ol] + O
Settings	mass density, [4] [kg/m3]	refractive index, [3]	viscosity, [4] [mPa·s]
x1 = 0.0504	975.1	1.34612	1.616
x1 = 0.0993	953.3	1.35475	2.121
x1 = 0.1986	914.9	1.36491	2.599
x1 = 0.2979	887.2	1.37116	2.691
x1 = 0.3949	866.9	1.37516	2.61
x1 = 0.4955	850.3	1.37805	2.494
x1 = 0.5953	836.9	1.38008	2.339
x1 = 0.6995	825.6	1.38154	2.221
x1 = 0.7969	816.3	1.38239	2.124
x1 = 0.8983	807.7	1.38299	2.026
x1 = 0.9518	803.5	1.38308	1.998
x1 = 1	799.6	1.38309	2.017

CC(C)O [propan-2-ol]
Settings	refractive index
[2]	1.375

[1], 101 kPa
Settings	mass density [kg/m3]	viscosity [mPa·s]
–	780.7	2.082

CC(C)O [propan-2-ol] + O
Settings	mass density, [4] [kg/m3]	refractive index, [3]	viscosity, [4] [mPa·s]
x1 = 0.0491	974.6	1.3456	1.718
x1 = 0.1008	953.6	1.3557	2.495
x1 = 0.2011	912.6	1.365	3.038
x1 = 0.2994	881.6	1.3697	3.087
x1 = 0.3992	857.7	1.3724	2.924
x1 = 0.4981	838.8	1.374	2.693
x1 = 0.5979	823.5	1.3749	2.489
x1 = 0.6987	810.6	1.3754	2.274
x1 = 0.7993	799.4	1.3756	2.153
x1 = 0.8998	789.8	1.3754	2.073
x1 = 0.9495	785.4	1.3752	2.063
x1 = 1	780.7	1.375	2.082
